Assay: Human HepG2 cell viability assay in 384 well format
Format: toxicity, cell-based
Parameters: dose 125 nL, time 70.5 hour; concentration not given beside the values
Conditions: HepG2 cells, read-out: Inhibition

Row | Structure (SMILES) | cytotoxicity at 70.5 h [%]
1 | Cc1cc(C(=O)N[C@H]2CC[C@@]3(CCC(=O)N3C)CC2)no1 | -9.34
2 | Cc1ccsc1C(=O)N1CC2CC1(C(=O)NCc1ccco1)C2 | 13.9
3 | Cc1ccsc1C(=O)N1CC2CC1(C(=O)NCC1CC1)C2 | -16.8
4 | CN(C)C(=O)N1CCC2(CCC(C(=O)N3CCCC3)O2)CC1 (stereo not drawn) | -16.3
5 | CC(=O)N1CCC2(CC1)CN(C(C)=O)CC21CCNC1=O (stereo not drawn) | 16.2
6 | CCN1C(=O)CCC12CCN(S(=O)(=O)c1ccccc1)CC2 | -4.14
7 | O=C1Nc2ccccc2C1C1CCN(C(=O)C2CC2)CC1 (stereo not drawn) | -6.49
8 | COc1ccc(CN2C[C@@H]3CN(S(=O)(=O)C4CC4)C[C@@H]3C2=O)cc1 | -9.53
9 | COCCN1C(=O)CC[C@]12CC[C@@H](NC(=O)c1cc(C)on1)CC2 | -5.63
10 | CN(C)C(=O)N1CCC(C2C(=O)Nc3ccccc32)CC1 (stereo not drawn) | -10.4
11 | Cc1ccc(CN2CCc3c(C(=O)N(C)C)n[nH]c3C2)o1 | -8.34
12 | CCN(C)C1COC2(CCN(C(=O)c3ccc4[nH]ccc4c3)CC2)C1 (stereo not drawn) | -11
13 | O=C(Cc1ccco1)N1CCC2(CCOCC2COCC2CC2)CC1 (stereo not drawn) | -4.14
14 | CN(C)C(=O)N1CC(=O)NCC12CCN(C(=O)c1ccco1)C2 (stereo not drawn) | -7.28
15 | CS(=O)(=O)NCc1cncc2c1CCN(C(=O)c1ccccn1)C2 | -12.5
16 | CC(C)NC(=O)C1Cc2nc(-c3ccsc3)sc2N1CC1CC1 (stereo not drawn) | -6.43
17 | Cc1cccc(CN2CCC3(CCCN(Cc4cnn(C)c4)C3)C2=O)n1 (stereo not drawn) | -18.3
18 | O=C(C1CCCCC1)N1CC2(CCNCC2)C1 | 1.58
19 | CCOC(=O)N1CCC2(CCNC2)C1 (stereo not drawn) | -5.56
20 | CCOC1COC2(CCN(Cc3ccco3)CC2)C1 (stereo not drawn) | 18.2
21 | CC(C)NC(=O)N1CCC2(CC1)C(=O)NCCN2Cc1ccccc1 | -7.72
22 | CC(C)C1COC2(CCN(Cc3ccco3)CC2)C1 (stereo not drawn) | -7.19

Row | Structure (SMILES) | cytotoxicity at 70.5 h [%]
23 | CC(=O)N1C[C@H]2CCCN(Cc3ccc(C)o3)[C@H]2C1 | -10.5
24 | COc1ccc(C[C@H]2CN(C3CCOCC3)CC[C@@H]2OCC2CC2)cc1 | -3.98
25 | CN(C[C@@H]1CCC[C@@H]2CN(c3ncccn3)C[C@@H]21)C1CC1 | -1.63
26 | CC(C)N1CCC2(CCCN(c3nccc(C(F)(F)F)n3)C2)CC1 | -2.7
27 | CN(C)C(=O)c1n[nH]c2c1CN(Cc1ccccn1)CC2 | -3.26
28 | c1cc(CN2CCC3(CCOCC3COCC3CC3)CC2)co1 (stereo not drawn) | -4.78
29 | CCN1CCc2[nH]nc(C(=O)N3CCCC3C)c2C1 (stereo not drawn) | 4.99
30 | CCN1CC(=O)NCC12CCN(C(=O)c1ccco1)C2 (stereo not drawn) | -3.25
31 | Cc1ccc(C(=O)N2C[C@@H]3CCN(C(C)C)C[C@@H]3C2)cn1 | 0.492
32 | Fc1ccc(CN2CCO[C@H]3[C@H](OCC4CCCC4)CC[C@@H]32)cc1 | -9.77
33 | CN(C)CCNC(=O)C1Cc2nc(-c3ccccc3)sc2N1CC1CC1 (stereo not drawn) | -11
34 | CN(C)CCNC(=O)C1Cc2nc(-c3ccsc3)sc2N1CC1CC1 (stereo not drawn) | -4.49
35 | Cc1occc1C(=O)N1C[C@@H]2OCCN(c3ncccn3)[C@@H]2C1 | -11.6
36 | Cn1cc(N2C(=O)CC[C@@H]3[C@H]2CCN3CC2CCOCC2)cn1 | -14.3
37 | CCN1CCN(C)C2(CCN(Cc3cccc(C)n3)CC2)C1=O | -9.88
38 | Cc1ccc(CN2CCC3(CC2)C(=O)N(CCO)CCN3C)o1 | -3.64
39 | COc1ccc(CN2C[C@@H]3CN(Cc4ccncc4)C[C@@H]3C2=O)cc1 | -8.45
40 | COc1ccc(CN2C[C@H]3CN(Cc4ccncc4)C(=O)[C@H]3C2)cc1 | -7.43
41 | COc1ncccc1CN1CCc2[nH]nc(C(=O)N3CCCC3C)c2C1 (stereo not drawn) | -3.57
42 | COCC1c2c(cnn2CC2CC2)CCN1Cc1ccc(C)o1 (stereo not drawn) | -8.01
43 | c1cc(CN2CCO[C@H]3[C@H](OCCN4CCCC4)CC[C@@H]32)ccn1 | -11.7
